According to ChEMBL document CHEMBL4334438, “Discovery of novel glycogen synthase kinase-3α inhibitors: Structure-based virtual screening, preliminary SAR and biological evaluation for treatment of acute myeloid leukemia” (Eur J Med Chem, 2019):

What was measured:
[1] = molecular target: Activated CDC42 kinase 1 (Homo sapiens) (UniProt Q07912); experiment: Inhibition of human ACK1 (1 to 389 residues) assessed as residual activity at 1 uM using EFPIYDFLPAKKK as substrate incubated for 40 mins in presence of [gamma-33ATP] by scintillation counting based radiometry assay relative to control
Sequence of Activated CDC42 kinase 1 (Homo sapiens) (Q07912 whole entry, looked up, the tested form may be a part): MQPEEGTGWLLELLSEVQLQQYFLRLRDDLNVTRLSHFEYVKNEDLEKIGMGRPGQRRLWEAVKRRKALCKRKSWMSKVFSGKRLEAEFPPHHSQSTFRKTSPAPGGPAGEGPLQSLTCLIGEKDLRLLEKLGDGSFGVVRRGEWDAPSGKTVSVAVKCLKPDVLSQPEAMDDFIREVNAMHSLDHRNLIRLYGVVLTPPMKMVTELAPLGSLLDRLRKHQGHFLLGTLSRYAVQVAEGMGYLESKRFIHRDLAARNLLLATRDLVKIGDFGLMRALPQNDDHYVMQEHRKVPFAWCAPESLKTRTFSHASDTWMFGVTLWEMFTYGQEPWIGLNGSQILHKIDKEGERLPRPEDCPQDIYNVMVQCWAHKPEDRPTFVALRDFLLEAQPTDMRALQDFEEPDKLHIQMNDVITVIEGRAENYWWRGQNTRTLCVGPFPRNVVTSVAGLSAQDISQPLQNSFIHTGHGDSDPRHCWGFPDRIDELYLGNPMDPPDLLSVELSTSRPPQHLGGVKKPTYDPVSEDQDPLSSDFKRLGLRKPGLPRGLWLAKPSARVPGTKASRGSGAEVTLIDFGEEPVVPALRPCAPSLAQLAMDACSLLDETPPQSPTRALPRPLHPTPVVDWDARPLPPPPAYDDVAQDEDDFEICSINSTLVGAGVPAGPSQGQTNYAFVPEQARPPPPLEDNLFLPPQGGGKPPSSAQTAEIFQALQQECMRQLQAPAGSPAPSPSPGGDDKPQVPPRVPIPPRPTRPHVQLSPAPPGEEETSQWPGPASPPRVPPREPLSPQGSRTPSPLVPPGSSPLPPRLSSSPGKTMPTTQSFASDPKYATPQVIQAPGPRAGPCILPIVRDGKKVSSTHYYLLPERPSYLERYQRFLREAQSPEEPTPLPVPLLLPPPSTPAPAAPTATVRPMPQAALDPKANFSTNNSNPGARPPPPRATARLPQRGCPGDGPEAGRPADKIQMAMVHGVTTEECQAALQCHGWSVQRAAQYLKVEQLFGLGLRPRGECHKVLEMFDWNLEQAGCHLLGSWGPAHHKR

[2] = molecular target: Serine/threonine-protein kinase BRSK1 (Homo sapiens) (UniProt Q8TDC3); experiment: Inhibition of recombinant human BRSK1 ( 2 to end residues) assessed as residual activity at 1 uM using KKKVSRSGLYRSPSMPENLNRPR as substrate incubated for 40 mins in presence of [gamma-33ATP] by scintillation counting based radiometry assay relative to control
[3] = molecular target: Dual specificity protein kinase CLK3 (Homo sapiens) (UniProt P49761); experiment: Inhibition of recombinant full length human CLK3 assessed as residual activity at 1 uM using ERMRPRKRQGSVR as substrate incubated 40 mins in presence of [gamma-33ATP] by scintillation counting based radiometry assay relative to control
Sequence of Dual specificity protein kinase CLK3 (Homo sapiens) (P49761 whole entry, looked up): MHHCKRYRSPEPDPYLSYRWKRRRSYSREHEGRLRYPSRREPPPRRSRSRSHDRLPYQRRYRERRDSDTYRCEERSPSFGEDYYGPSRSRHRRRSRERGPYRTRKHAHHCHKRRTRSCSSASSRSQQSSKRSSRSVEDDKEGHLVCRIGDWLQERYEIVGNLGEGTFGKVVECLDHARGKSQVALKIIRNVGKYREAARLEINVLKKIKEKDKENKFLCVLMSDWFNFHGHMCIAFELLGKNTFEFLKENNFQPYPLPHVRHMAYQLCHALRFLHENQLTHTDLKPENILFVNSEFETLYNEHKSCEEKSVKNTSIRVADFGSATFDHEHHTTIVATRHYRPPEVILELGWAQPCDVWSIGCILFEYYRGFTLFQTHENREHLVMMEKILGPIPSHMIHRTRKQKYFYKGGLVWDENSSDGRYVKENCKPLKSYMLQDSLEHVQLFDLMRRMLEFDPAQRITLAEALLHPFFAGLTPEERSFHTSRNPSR

[4] = molecular target: Tyrosine-protein kinase Fer (Homo sapiens) (UniProt P16591); experiment: Inhibition of recombinant human FER (541 to end residues) assessed as residual activity at 1 uM using KKKSPGEYVNIEFG as substrate at 40 mins in presence of [gamma-33ATP] by scintillation counting based radiometry assay relative to control
[5] = molecular target: Rhodopsin kinase GRK7 (Homo sapiens) (UniProt Q8WTQ7); experiment: Inhibition of recombinant full length human GRK7 assessed as residual activity at 1 uM using casein as substrate at 40 mins in presence of [gamma-33ATP] by scintillation counting based radiometry assay relative to control
[6] = molecular target: Protein kinase C delta type (Homo sapiens) (UniProt Q05655); experiment: Inhibition of recombinant human PKCdelta (2 to end residues) assessed as residual activity at 1 uM using ERMRPRKRQGSVRRRV as substrate measured after 40 mins in presence of [gamma33P]ATP by scintillation counting method relative to control
Sequence of Protein kinase C delta type (Homo sapiens) (Q05655 whole entry, looked up): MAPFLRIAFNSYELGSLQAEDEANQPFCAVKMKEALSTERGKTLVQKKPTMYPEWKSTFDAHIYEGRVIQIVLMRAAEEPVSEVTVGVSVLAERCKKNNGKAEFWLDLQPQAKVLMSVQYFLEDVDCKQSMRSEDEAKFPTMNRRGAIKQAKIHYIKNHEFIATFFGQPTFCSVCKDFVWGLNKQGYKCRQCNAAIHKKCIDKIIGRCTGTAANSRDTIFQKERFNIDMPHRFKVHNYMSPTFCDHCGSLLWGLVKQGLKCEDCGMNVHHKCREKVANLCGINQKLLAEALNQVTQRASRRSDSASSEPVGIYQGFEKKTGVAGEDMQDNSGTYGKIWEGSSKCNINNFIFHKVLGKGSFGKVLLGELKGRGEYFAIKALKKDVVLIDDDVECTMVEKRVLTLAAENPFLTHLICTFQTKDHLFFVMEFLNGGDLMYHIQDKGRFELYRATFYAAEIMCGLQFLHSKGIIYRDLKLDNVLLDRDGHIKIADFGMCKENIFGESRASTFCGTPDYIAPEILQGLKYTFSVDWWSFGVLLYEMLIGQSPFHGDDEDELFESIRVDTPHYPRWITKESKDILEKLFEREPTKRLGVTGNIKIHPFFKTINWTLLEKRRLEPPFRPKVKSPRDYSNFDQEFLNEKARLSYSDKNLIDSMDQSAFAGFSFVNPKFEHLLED

[7] = molecular target: T1, cGMP-dependent protein kinase 1 (Homo sapiens) (UniProt Q13976); experiment: Inhibition of recombinant full-length human PKG1alpha assessed as residual activity at 1 uM using RRRLSFAEPG as substrate measured after 40 mins in presence of [gamma33P]ATP by scintillation counting method relative to control
T1 sequence (whole entry): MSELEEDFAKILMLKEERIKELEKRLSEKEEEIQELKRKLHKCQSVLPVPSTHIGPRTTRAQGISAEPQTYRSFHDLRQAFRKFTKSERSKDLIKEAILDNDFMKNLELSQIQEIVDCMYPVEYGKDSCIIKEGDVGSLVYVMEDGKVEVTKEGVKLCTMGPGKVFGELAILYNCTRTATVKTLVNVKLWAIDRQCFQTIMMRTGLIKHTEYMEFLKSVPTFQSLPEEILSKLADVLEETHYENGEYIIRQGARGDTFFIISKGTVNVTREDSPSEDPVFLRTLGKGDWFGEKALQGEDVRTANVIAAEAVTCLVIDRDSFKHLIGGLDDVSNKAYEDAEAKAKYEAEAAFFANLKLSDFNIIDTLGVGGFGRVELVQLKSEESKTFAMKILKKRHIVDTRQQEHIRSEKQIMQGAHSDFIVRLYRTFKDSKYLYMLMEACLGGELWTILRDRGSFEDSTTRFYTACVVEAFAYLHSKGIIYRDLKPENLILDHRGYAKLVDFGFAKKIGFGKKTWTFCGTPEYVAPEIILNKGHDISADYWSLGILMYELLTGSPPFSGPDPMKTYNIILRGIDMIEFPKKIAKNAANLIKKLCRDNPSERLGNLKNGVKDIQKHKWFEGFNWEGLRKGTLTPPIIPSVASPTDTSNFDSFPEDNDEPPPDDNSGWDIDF

[8] = molecular target: Serine/threonine-protein kinase PRP4 homolog (Homo sapiens) (UniProt Q13523); experiment: Inhibition of recombinant human PRP4 (663 to end residues) assessed as residual activity at 1 uM using casein as substrate measured after 40 mins in presence of [gamma33P]ATP by scintillation counting method relative to control
Sequence of Serine/threonine-protein kinase PRP4 homolog (Homo sapiens) (Q13523 whole entry): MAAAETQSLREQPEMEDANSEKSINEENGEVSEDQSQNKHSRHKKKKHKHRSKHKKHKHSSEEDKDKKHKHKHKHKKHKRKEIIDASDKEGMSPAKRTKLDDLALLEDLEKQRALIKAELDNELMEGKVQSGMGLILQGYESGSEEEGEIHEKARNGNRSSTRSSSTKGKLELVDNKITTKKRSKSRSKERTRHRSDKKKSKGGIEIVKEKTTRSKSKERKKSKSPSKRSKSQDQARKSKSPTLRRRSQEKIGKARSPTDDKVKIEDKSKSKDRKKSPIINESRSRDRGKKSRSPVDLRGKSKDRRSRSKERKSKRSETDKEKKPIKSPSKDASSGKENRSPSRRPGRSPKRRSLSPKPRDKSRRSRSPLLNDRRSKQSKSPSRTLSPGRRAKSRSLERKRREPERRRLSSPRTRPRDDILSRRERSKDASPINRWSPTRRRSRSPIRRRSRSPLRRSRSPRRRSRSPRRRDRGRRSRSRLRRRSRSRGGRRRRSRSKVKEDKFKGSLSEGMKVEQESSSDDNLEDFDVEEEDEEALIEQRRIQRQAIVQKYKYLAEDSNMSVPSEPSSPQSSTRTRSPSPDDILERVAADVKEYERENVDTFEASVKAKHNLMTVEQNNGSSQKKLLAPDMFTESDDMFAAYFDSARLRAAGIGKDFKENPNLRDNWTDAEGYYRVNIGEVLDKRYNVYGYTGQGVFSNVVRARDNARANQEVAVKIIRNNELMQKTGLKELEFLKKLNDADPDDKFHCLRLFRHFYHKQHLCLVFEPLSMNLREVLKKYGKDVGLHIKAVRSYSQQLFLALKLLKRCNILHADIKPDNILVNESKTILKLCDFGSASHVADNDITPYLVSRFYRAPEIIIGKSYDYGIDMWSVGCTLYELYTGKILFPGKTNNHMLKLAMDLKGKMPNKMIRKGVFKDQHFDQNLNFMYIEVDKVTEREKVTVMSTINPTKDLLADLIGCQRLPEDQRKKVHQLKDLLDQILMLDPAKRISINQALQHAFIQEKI

[9] = molecular target: Mitogen-activated protein kinase 11 (Homo sapiens) (UniProt Q15759); experiment: Inhibition of recombinant human full length SAPK2b assessed as residual activity at 1 uM using myelin basic protein as substrate measured after 40 mins in presence of [gamma33P]ATP by scintillation counting method relative to control
[10] = molecular target: Serine/threonine-protein kinase SBK1 (Homo sapiens) (UniProt Q52WX2); experiment: Inhibition of recombinant full-length human SBK1 assessed as residual activity at 1 uM using KKLRRTLSVA as substrate measured after 120 mins in presence of [gamma33P]ATP by scintillation counting method relative to control
[11] = molecular target: Serine/threonine-protein kinase TBK1 (Homo sapiens) (UniProt Q9UHD2); experiment: Inhibition of recombinant full-length human TBK1 at 1 uM assessed as residual activity at 1 uM using KRRRALS(p)VASLPGL as substrate measured after 40 mins in presence of [gamma33P]ATP by scintillation counting method relative to control
[12] = molecular target: Testis-specific serine/threonine-protein kinase 1 (Homo sapiens) (UniProt Q9BXA7); experiment: Inhibition of recombinant full-length human TSSK1 at 1 uM assessed as residual activity at 1 uM using KKKVSRSGLYRSPSMPENLNRPR as substrate measured after 120 mins in presence of [gamma33P]ATP by scintillation counting method relative to control
Sequence of Testis-specific serine/threonine-protein kinase 1 (Homo sapiens) (Q9BXA7 whole entry): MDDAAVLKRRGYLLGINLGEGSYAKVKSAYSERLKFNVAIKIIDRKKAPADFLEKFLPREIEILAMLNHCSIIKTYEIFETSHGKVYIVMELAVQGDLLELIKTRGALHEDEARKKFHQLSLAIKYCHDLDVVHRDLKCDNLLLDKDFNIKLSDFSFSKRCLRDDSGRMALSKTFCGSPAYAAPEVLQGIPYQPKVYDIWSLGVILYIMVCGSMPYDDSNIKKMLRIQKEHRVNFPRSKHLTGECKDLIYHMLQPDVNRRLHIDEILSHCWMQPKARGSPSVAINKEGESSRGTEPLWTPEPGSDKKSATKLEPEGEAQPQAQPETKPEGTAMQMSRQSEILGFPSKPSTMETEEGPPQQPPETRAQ

[13] = molecular target: Serine/threonine-protein kinase ULK3 (Homo sapiens) (UniProt Q6PHR2); experiment: Inhibition of recombinant full-length human ULK3 at 1 uM assessed as residual activity at 1 uM using casein as substrate measured after 40 mins in presence of [gamma33P]ATP by scintillation counting method relative to control
Sequence of Serine/threonine-protein kinase ULK3 (Homo sapiens) (Q6PHR2 whole entry): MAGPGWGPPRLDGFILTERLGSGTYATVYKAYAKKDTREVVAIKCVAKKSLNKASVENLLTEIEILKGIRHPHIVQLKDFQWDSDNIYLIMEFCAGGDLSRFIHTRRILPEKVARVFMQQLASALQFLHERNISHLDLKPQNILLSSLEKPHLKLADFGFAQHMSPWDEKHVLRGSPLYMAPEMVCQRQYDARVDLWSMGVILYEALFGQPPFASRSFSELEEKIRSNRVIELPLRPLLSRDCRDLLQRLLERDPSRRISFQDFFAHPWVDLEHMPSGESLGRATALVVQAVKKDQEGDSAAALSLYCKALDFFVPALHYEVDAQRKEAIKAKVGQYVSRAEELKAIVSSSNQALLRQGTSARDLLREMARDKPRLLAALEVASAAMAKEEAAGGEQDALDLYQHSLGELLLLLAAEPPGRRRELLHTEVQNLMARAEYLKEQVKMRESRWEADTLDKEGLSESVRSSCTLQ

[14] = molecular target: Mitogen-activated protein kinase kinase kinase 20 (Homo sapiens) (UniProt Q9NYL2); experiment: Inhibition of recombinant full-length human ZAK at 1 uM assessed as residual activity at 1 uM using MBP as substrate measured after 40 mins in presence of [gamma33P]ATP by scintillation counting method relative to control
Sequence of Mitogen-activated protein kinase kinase kinase 20 (Homo sapiens) (Q9NYL2 2-800 limits assumed): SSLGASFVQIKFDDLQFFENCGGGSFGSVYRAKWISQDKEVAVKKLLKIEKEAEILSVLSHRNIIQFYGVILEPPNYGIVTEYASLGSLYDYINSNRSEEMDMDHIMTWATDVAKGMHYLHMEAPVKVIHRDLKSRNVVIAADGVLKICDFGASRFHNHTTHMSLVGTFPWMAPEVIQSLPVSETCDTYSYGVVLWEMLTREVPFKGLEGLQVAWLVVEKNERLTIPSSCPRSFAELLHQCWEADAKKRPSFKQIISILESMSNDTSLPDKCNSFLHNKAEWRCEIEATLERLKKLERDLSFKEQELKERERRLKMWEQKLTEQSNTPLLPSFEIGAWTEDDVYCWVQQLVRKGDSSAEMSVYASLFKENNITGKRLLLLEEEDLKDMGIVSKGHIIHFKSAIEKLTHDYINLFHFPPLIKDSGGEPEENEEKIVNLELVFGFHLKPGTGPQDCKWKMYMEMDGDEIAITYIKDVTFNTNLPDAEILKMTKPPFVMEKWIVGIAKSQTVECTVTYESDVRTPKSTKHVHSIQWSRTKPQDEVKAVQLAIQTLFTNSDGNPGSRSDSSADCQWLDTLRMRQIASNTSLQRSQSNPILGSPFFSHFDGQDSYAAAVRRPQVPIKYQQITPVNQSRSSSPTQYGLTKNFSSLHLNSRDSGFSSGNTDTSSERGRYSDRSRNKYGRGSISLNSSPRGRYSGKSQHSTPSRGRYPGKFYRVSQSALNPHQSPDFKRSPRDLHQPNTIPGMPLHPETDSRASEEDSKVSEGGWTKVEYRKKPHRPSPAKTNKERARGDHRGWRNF

[15] = molecular target: PI3K p110 beta/p85 alpha (Homo sapiens) (UniProt P27986+P42338); experiment: Inhibition of recombinant full-length human PI3K p110beta/p85alpha at 1 uM assessed as residual activity at 1 uM using phosphatidylinositol-4, 5-bisphosphate as substrate measured after 40 mins by fluorescence assay; format: protein-complex assay
Homo sapiens = species: Homo sapiens; experiment: Inhibition of recombinant full-length human PI3K p120gamma R459Q mutant at 1 uM assessed as residual activity at 1 uM using phosphatidylinositol-4, 5-bisphosphate as substrate measured after 40 mins by fluorescence assay
[16] = tested on: Casein kinase II subunit alpha' (CSNK2A2); experiment: Inhibition of recombinant full length human CK2alpha2 assessed as residual activity at 1 uM using RRRDDDSDDD as substrate incubated 40 mins in presence of [gamma-33ATP] by scintillation counting based radiometry assay relative to control

| Compound | Activity [1] | Activity [2] | Activity [3] | Activity [4] | Activity [5] | Activity [6] | Activity [7] | Activity [8] | Activity [9] | Activity [10] | Activity [11] | Activity [12] | Activity [13] | Activity [14] | Activity [15] | Activity (Homo sapiens) | Activity [16] |
| --- | --- | --- | --- | --- | --- | --- | --- | --- | --- | --- | --- | --- | --- | --- | --- | --- | --- |
| N=C1NC(=O)/C(=C\c2ccc(-c3cccc([N+](=O)[O-])c3)o2)S1 | 93% | 65% | 92% | 93% | 96% | 103% | 71% | 86% | 100% | 98% | 105% | 91% | 100% | 114% | 99% | 93% | 52% |
| C=CCOC(=O)c1cc(-c2ccc(/C=C3/NC(=S)NC3=O)o2)ccc1Cl | 96% | 89% | 85% | 105% | 98% | 96% | 93% | 92% | 100% | 112% | 98% | 97% | 99% | 115% | 97% | 93% | 73% |
